Reference: PMC8819286 (Cancer Science, 2021)
Like-named read-outs stand apart in the source and are kept apart here.

Legend:
[1] = system: EGFR^19del/T790M/C797S–triple‐mutant cells; details: cited from earlier work
[2] = system: BaF3‐EGFR^19del/T790M cells; assay: Proliferation assay; assay type: cell-based; details: 72 h, read-out: IC50, antiproliferative, BaF3‐EGFR^19del/T790M
[3] = system: BaF3‐EGFR^19del/T790M/C797S cells; assay: Apoptosis, Annexin V‐FITC/PI flow cytometry; assay type: cell-based; details: concentrations between 30 nmol/L and 300 nmol/L, 48 h
[4] = system: PC‐9‐OR cells (EGFR^19del/T790M/C797S); assay: Proliferation assay; assay type: cell-based; details: PC9-OR, 72 h, read-out: IC50, antiproliferative, PC‐9‐OR cells
PC‐9 (EGFR^19del) cells = assay: Proliferation assay; assay type: cell-based; details: Homo sapiens, PC-9, 72 h, read-out: IC50, antiproliferative, PC‐9 cells
EGFR^T790M patients = details: cited from earlier work
[5] = system: BaF3‐EGFR^19del/T790M/C797S cells; assay: Proliferation assay; assay type: cell-based; details: 72 h, read-out: IC50, antiproliferative, BaF3‐EGFR^19del/T790M/C797S
PC‐9‐OR cells = assay: Apoptosis, Annexin V‐FITC/PI flow cytometry; assay type: cell-based; details: concentrations between 30 nmol/L and 300 nmol/L, 48 h

COc1cc(N2CCC(N3CCN(C)CC3)CC2)ccc1Nc1ncc(Cl)c(Nc2ccccc2P(C)(C)=O)n1 [Brigatinib]
effectiveness against EGFR^19del/T790M/C797S–triple‐mutant cells ([1]; in vitro and in vivo): effective

O=C(Nc1nccs1)C(c1cc(F)ccc1O)N1Cc2ccccc2C1=O (stereo not shown) [EAI045]
effectiveness against EGFR^19del/T790M/C797S–triple‐mutant cells [1]: not effective

O=C(Nc1nccs1)C(c1cc(F)ccc1O)N1Cc2ccc(-c3ccc(N4CCNCC4)cc3)cc2C1=O (stereo not shown) [JBJ‐04‐125‐02]
effectiveness against EGFR^19del/T790M/C797S–triple‐mutant cells [1]: not effective

C=CC(=O)Nc1cc(Nc2nccc(-c3cn(C)c4ccccc34)n2)c(OC)cc1N(C)CCN(C)C [Osimertinib]
IC50 [2]: 40 nM
apoptosis (in words) [3]: hardly caused any significant apoptosis
IC50 [4]: 4850 nM
IC50 (PC‐9 (EGFR^19del) cells): 80 nM
response rate (EGFR^T790M patients): 61%
IC50 [5]: 3380 nM
apoptosis (in words) (PC‐9‐OR cells): hardly caused any significant apoptosis
